From ChEMBL document CHEMBL1201862, “PubChem BioAssay data set” (2004)
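How tested: cells in 96-well plates exposed to compound for 48 hours at five concentrations. Here, GI50 denotes the concentration required for 50% inhibition of growth.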 Activity calls are given as the source filed them. Rule as the data show it: active = GI50 up to about 1.1 µM and inactive = higher.

How the values were obtained:
Test in all cases: NCI-60 cell line screen, 48 h
HT-29 = tested on: HT-29
NCI-H460 = tested on: NCI-H460
A498 = tested on: A498
UO-31 = tested on: UO-31
ACHN = tested on: ACHN
SR = tested on: SR
SNB-75 = tested on: SNB-75
SF-268 = tested on: SF-268
HCT-116 = tested on: HCT-116
NCI-H23 = tested on: NCI-H23
SN12C = tested on: SN12C
SF-295 = tested on: SF-295
SNB-19 = tested on: SNB-19
HCC 2998 = tested on: HCC 2998
A549 = tested on: A549
LXFL 529 = tested on: LXFL 529
CCRF-CEM = tested on: CCRF-CEM
KM12 = tested on: KM12
LOX IMVI = tested on: LOX IMVI
EKVX = tested on: EKVX
OVCAR-4 = tested on: OVCAR-4
HL-60 = tested on: HL-60
M14 = tested on: M14
M19-MEL = tested on: M19-MEL
DMS-114 = tested on: DMS-114
SK-MEL-28 = tested on: SK-MEL-28
TK-10 = tested on: TK-10
HOP-62 = tested on: HOP-62
UACC-62 = tested on: UACC-62
NCI-H226 = tested on: NCI-H226
DLD-1 = tested on: DLD-1
U-251 = tested on: U-251
OVCAR-3 = tested on: OVCAR-3
SF-539 = tested on: SF-539
SK-OV-3 = tested on: SK-OV-3
Malme-3M = tested on: Malme-3M
UACC-257 = tested on: UACC-257
RXF 393 = tested on: RXF 393
IGROV-1 = tested on: IGROV-1
KM-20L2 = tested on: KM-20L2
K562 = tested on: K562
OVCAR-5 = tested on: OVCAR-5
SW-620 = tested on: SW-620
MOLT-4 = tested on: MOLT-4
HCT-15 = tested on: HCT-15
XF498 = tested on: XF498
SNB-78 = tested on: SNB-78
COLO 205 = tested on: COLO 205
RPMI-8226 = tested on: RPMI-8226
SK-MEL-5 = tested on: SK-MEL-5
NCI-H522 = tested on: NCI-H522
OVCAR-8 = tested on: OVCAR-8
786-0 = tested on: 786-0
DMS-273 = tested on: DMS-273
SK-MEL-2 = tested on: SK-MEL-2

With `Nc1ccc2c(c1)C(=O)N(O)C2=O` the GI50 (HT-29) was > 100 µM (inactive), the GI50 (NCI-H460) was > 100 µM (inactive) and the GI50 (A498) was > 100 µM (inactive). For the same molecule, the GI50 (UO-31) was > 100 µM (inactive), the GI50 (ACHN) was > 100 µM (inactive) and the GI50 (SR) was > 100 µM (inactive). The GI50 (SNB-75) was > 100 µM (inactive), the GI50 (SF-268) was > 100 µM (inactive) and the GI50 (HCT-116) was > 100 µM (inactive). For the same molecule, the GI50 (NCI-H23) was > 100 µM (inactive), the GI50 (SN12C) was > 100 µM (inactive) and the GI50 (SF-295) was > 100 µM (inactive). For the same molecule, the GI50 (SNB-19) was > 100 µM (inactive), the GI50 (HCC 2998) was 92 µM (inactive) and the GI50 (A549) was > 100 µM (inactive). The GI50 (LXFL 529) was > 100 µM (inactive), the GI50 (CCRF-CEM) was > 100 µM (inactive) and the GI50 (KM12) was > 100 µM (inactive). For the same molecule, the GI50 (LOX IMVI) was > 100 µM (inactive), the GI50 (EKVX) was > 100 µM (inactive) and the GI50 (OVCAR-4) was > 100 µM (inactive). For the same molecule, the GI50 (HL-60) was > 100 µM (inactive), the GI50 (M14) was > 100 µM (inactive) and the GI50 (M19-MEL) was > 100 µM (inactive). The GI50 (DMS-114) was > 100 µM (inactive), the GI50 (SK-MEL-28) was > 100 µM (inactive) and the GI50 (TK-10) was > 100 µM (inactive). For the same molecule, the GI50 (HOP-62) was > 100 µM (inactive), the GI50 (UACC-62) was > 100 µM (inactive) and the GI50 (NCI-H226) was > 100 µM (inactive). The GI50 (DLD-1) was > 100 µM (inactive), the GI50 (U-251) was > 100 µM (inactive) and the GI50 (OVCAR-3) was > 100 µM (inactive). The GI50 (SF-539) was > 100 µM (inactive), the GI50 (SK-OV-3) was > 100 µM (inactive) and the GI50 (Malme-3M) was > 100 µM (inactive). For the same molecule, the GI50 (UACC-257) was > 100 µM (inactive), the GI50 (RXF 393) was > 100 µM (inactive) and the GI50 (IGROV-1) was > 100 µM (inactive). The GI50 (KM-20L2) was > 100 µM (inactive), the GI50 (K562) was > 100 µM (inactive) and the GI50 (OVCAR-5) was > 100 µM (inactive). For the same molecule, the GI50 (SW-620) was > 100 µM (inactive), the GI50 (MOLT-4) was > 100 µM (inactive) and the GI50 (HCT-15) was greater than 100 µM. For the same molecule, the GI50 (XF498) was > 100 µM (inactive) and the GI50 (SNB-78) was > 100 µM (inactive).

With `C#CCN(Cc1ccc2nc(-c3ccccc3)c(N)nc2c1)c1cc(OC)c(OC)c(OC)c1` the GI50 (HT-29) was 23.4 µM (inactive), the GI50 (NCI-H460) was 22 µM (inactive) and the GI50 (UO-31) was 23.1 µM (inactive). For the same molecule, the GI50 (ACHN) was 22.8 µM (inactive), the GI50 (SR) was 13.9 µM (inactive) and the GI50 (SNB-75) was 30.4 µM (inactive). For the same molecule, the GI50 (SF-268) was 40.7 µM (inactive), the GI50 (HCT-116) was 19.2 µM (inactive) and the GI50 (NCI-H23) was 25.1 µM (inactive). The GI50 (SN12C) was 32.1 µM (inactive), the GI50 (COLO 205) was 21.2 µM (inactive) and the GI50 (SF-295) was 18.7 µM (inactive). For the same molecule, the GI50 (SNB-19) was 40.5 µM (inactive), the GI50 (HCC 2998) was 57.4 µM (inactive) and the GI50 (RPMI-8226) was 11.2 µM (inactive). The GI50 (A549) was 23.2 µM (inactive), the GI50 (LXFL 529) was 19.3 µM (inactive) and the GI50 (CCRF-CEM) was 17.9 µM (inactive). For the same molecule, the GI50 (KM12) was > 10 µM (inactive), the GI50 (SK-MEL-5) was 11.9 µM (inactive) and the GI50 (LOX IMVI) was 25.2 µM (inactive). For the same molecule, the GI50 (EKVX) was 31.2 µM (inactive), the GI50 (OVCAR-4) was 27.9 µM (inactive) and the GI50 (HL-60) was 17.9 µM (inactive). For the same molecule, the GI50 (M14) was 25.5 µM (inactive), the GI50 (M19-MEL) was 27 µM (inactive) and the GI50 (DMS-114) was 14 µM (inactive). For the same molecule, the GI50 (SK-MEL-28) was 37.1 µM (inactive), the GI50 (TK-10) was 46.1 µM (inactive) and the GI50 (NCI-H522) was 20.9 µM (inactive). For the same molecule, the GI50 (HOP-62) was 39.2 µM (inactive), the GI50 (UACC-62) was 20 µM (inactive) and the GI50 (OVCAR-8) was 30.4 µM (inactive). The GI50 (786-0) was 44.7 µM (inactive), the GI50 (NCI-H226) was 16.7 µM (inactive) and the GI50 (U-251) was 37 µM (inactive). The GI50 (DMS-273) was 22.1 µM (inactive), the GI50 (OVCAR-3) was 15.4 µM (inactive) and the GI50 (SF-539) was 36.6 µM (inactive). For the same molecule, the GI50 (Malme-3M) was 26.9 µM (inactive), the GI50 (SK-MEL-2) was 23.1 µM (inactive) and the GI50 (RXF 393) was 25.5 µM (inactive). For the same molecule, the GI50 (IGROV-1) was 37.1 µM (inactive), the GI50 (KM-20L2) was 41.3 µM (inactive) and the GI50 (K562) was 23.8 µM (inactive). For the same molecule, the GI50 (OVCAR-5) was 48.5 µM (inactive), the GI50 (SW-620) was 36.5 µM (inactive) and the GI50 (MOLT-4) was 12.5 µM (inactive). For the same molecule, the GI50 (HCT-15) was 31.9 µM, the GI50 (XF498) was 30 µM (inactive) and the GI50 (SNB-78) was 22.9 µM (inactive).
